Our source for the IC50 values is PubChem BioAssay AID1159561 (GlaxoSmithKline (GSK), 2015).

The source made the active and inactive calls.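 The calls were made as follows: active = toxic to mouse fibroblast host cells, with IC50 below 50 µM; inactive = the rest.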 Bounds are passed on as bounds.

In the experiment the test system is NIH-3T3 viability, ATP luminescence. The experiment in a line: murine fibroblast viability via ATP level – cell-based, murine fibroblasts, cytotoxicity control for Trypanosoma cruzi inhibitor project (AID 1159561). To be noted: 4 days.
By IC50 is commonly meant the concentration that inhibits the measured activity by half. In the case of `O=C(NCCc1ccccc1Cl)c1cccn1-c1cccnc1`, the IC50 was 32 µM.

In the case of `CN1CCCN(C(=O)c2ccc(N3CCCC3)cc2Cl)CC1`, the IC50 was 25 µM.

Regarding `CC(C)Nc1nccc(-c2c(-c3ccc(F)cc3)ncn2C2CCOCC2)n1`, the IC50 was > 50 µM (inactive).

Take `COc1cc(NC(=O)Nc2cccc(CNC(=O)OC3CCCCC3)c2)ccc1-c1cnco1`: the IC50 is 10 µM.

Turning to `CC(C)c1cc(C(=O)N2CCCC(c3cc4ncccc4[nH]3)C2)on1` (configuration not stated), the IC50 is 20 µM.

In the case of `CC1(C)CCC(=Cc2ccc(Cl)cc2)CC1(O)Cn1ccnc1` (configuration not stated), the IC50 is 16 µM.

Turning to `OCCCNc1nc(Nc2ccncc2)nc2ccccc12`, the IC50 was > 50 µM (inactive).

For the compound `CN(C(=O)Nc1ccc2c(c1)CCN(C1CCC1)CC2)c1ccc(C#N)cc1`, the IC50 is 40 µM.

`O=C(NCC1CCCCC1)c1cc(=O)c2ccccc2o1`: the IC50 was 32 µM.

With `O=C(NCCc1cccnc1)c1ccc(-c2ccccc2F)o1`, the IC50 is 40 µM.

Consider `Cc1cccc(NS(=O)(=O)c2cnc3sc(C)cn3c2=O)c1`, for which the IC50 was > 50 µM (inactive).

For the compound `COc1cccc(CCNC(=O)C(c2cn[nH]c2)N2CCN(c3ccc(Cl)cc3)CC2)c1` (configuration not stated), the IC50 is 32 µM.

As to `CN(C)c1ncc(-c2cncn2CCOc2ccc(Cl)cc2)cn1`, the IC50 was 40 µM.

As to `COc1cc(-c2nc(N3CCOCC3)sc2-c2ccnc(NC3CCOCC3)n2)ccc1Cl`, the IC50 is > 50 µM (inactive).

Turning to `Cc1ccc(C)c(OC2CCN(C(=O)C(C)n3ccnc3)CC2)c1` (configuration not stated), the IC50 is > 50 µM (inactive).

With `O=C(Nc1ncc([N+](=O)[O-])s1)C1CC1`, the IC50 was 32 µM.

For `CC(=Cc1ccccc1)CN1CCC(=O)N(Cc2cccnc2)CC1`, the IC50 is > 50 µM (inactive).

As for `Fc1ccccc1N1C[C@H]2CCN(c3cccnc3)C[C@H]2C1`, the IC50 was 13 µM.

`CN(C)Cc1ccc(N2CCC(NS(=O)(=O)c3ccc(Cl)cc3)CC2)cc1`: the IC50 was 16 µM.

As to `Cc1nn(C2CCS(=O)(=O)C2)c(C)c1CN(C)C(=O)C=Cc1sc2ccccc2c1Cl` (configuration not stated), the IC50 was > 50 µM (inactive).

Regarding `CN(Cc1ccc(F)cc1)c1ccc(OCC(=O)N2CCCCC2c2cccnc2)nn1` (configuration not stated), the IC50 is 10 µM.

For `O=C(NCC(c1cccnc1)N1CCc2ccccc2C1)C(=O)Nc1cccc(Cl)c1` (configuration not stated), the IC50 is 25 µM.

Take `COc1ccc(CN2CCCCC2c2nc(-c3cccnc3)no2)cc1` (configuration not stated): the IC50 was > 50 µM (inactive).

As to `NC(=O)c1ccccc1Nc1nc(NC2CCCCC2)nc2[nH]ccc12`, the IC50 was 25 µM.

`COc1ccc(NS(=O)(=O)c2cc(NC(=O)Cc3ccc(C)cc3)ccc2N2CCOCC2)cc1`: the IC50 was 25 µM.

For the compound `COc1ccccc1-c1c(C)[nH]c2nc(N)nc(C)c12`, the IC50 was > 50 µM (inactive).

On to `N#Cc1cccc(CN2CCC(c3nc(-c4ccc(C(F)(F)F)nc4)no3)CC2)c1`, for which the IC50 is > 50 µM (inactive).

In the case of `O=c1[nH]c(C=Cc2cccc(OCCOc3ccccc3)c2)nc(O)c1[N+](=O)[O-]`, the IC50 was > 50 µM (inactive).

For the compound `COc1ccc2nccc([C@H](O)CN3CC[C@H](NC(=O)c4ccc(Br)cc4)[C@@H](O)C3)c2n1`, the IC50 is > 50 µM (inactive).

As for `COc1ccc(-c2ccc3nnc(-c4ccc(O)c(OC)c4)n3c2)cn1`, the IC50 is 50 µM.

Take `O=C1CCCCCC1(Cc1cnc[nH]1)c1ccc(Cl)cc1Cl` (configuration not stated): the IC50 was 20 µM.

For the compound `CN(Cc1ccccc1)Cc1nnnn1C1CCN(Cc2ccc(-n3ccnc3)cc2)CC1`, the IC50 was 4 µM.

As to `CS(=O)(=O)c1ccc(CC(=O)Nc2nc(-c3ccc(Cl)s3)cs2)cc1`, the IC50 is > 50 µM (inactive).

In the case of `COc1ccc(C(C)N(C)c2ncc3c(N)nc(N)nc3n2)cc1F` (configuration not stated), the IC50 is 40 µM.

Take `CC(C(=O)Nc1ccccc1F)N(C)CC(=O)Nc1cccc2ccccc12` (configuration not stated): the IC50 is 13 µM.

Regarding `COc1ccc(-c2nc3ncccc3o2)cc1NC(=O)c1cccs1`, the IC50 is > 50 µM (inactive).

Take `COc1cccc(C(=O)[C@H]2C[C@@H]2CN(Cc2cccnc2)Cc2cccnc2)c1`: the IC50 is 20 µM.

For `Cc1nnnn1-c1cccc(C(=O)N2CCC[C@@]3(C)c4ncncc4CCC23)c1` (some centres not stated), the IC50 is > 50 µM (inactive).

Regarding `CN(Cc1cc2ccccc2s1)c1ncc2c(N)nc(N)nc2n1`, the IC50 is 25 µM.

As to `N#Cc1cccc(CN2CCC(N(Cc3cccnc3)C(=O)c3cc(F)c(F)cc3F)CC2)c1`, the IC50 is 20 µM.

With `COc1ccc(-c2nc3ccncc3c(=O)n2CCOc2ccccc2)cc1`, the IC50 was 32 µM.

Turning to `Cc1cccc(NS(=O)(=O)c2ccc3c(c2)C(=O)c2cc(S(=O)(=O)Nc4cccc(C)c4C)ccc2-3)c1C`, the IC50 is > 50 µM (inactive).

`CCC(c1ccc(F)cc1)n1cncc1-c1cnn(C)c1` (configuration not stated): the IC50 is 25 µM.

With `Cc1nccn1C1CCCN(C(=O)c2cc3c(F)cccc3s2)C1` (configuration not stated), the IC50 is 20 µM.

Regarding `N#Cc1cc(N2CCCC2=O)ccc1Sc1ccccc1CO`, the IC50 is > 50 µM (inactive).

As to `Cc1ccc2ccc(C(Nc3ccccn3)c3cccnc3)c(O)c2n1` (configuration not stated), the IC50 was 10 µM.

For `CC(Cn1ccnc1)NC(=O)COc1ccc(Cl)c(Cl)c1` (configuration not stated), the IC50 is > 50 µM (inactive).

Regarding `Cc1cc2ncn(-c3ccc([N+](=O)[O-])cc3C#N)c2cc1C`, the IC50 is > 50 µM (inactive).

For the compound `COc1ccc2nc(N(Cc3cccnc3)C(=O)C3CCC3)sc2c1`, the IC50 is 50 µM.

In the case of `COc1ccc(C(=O)N2CCC(Nc3cccnc3)C2)c(OC)n1` (configuration not stated), the IC50 was > 50 µM (inactive).

With `CCOc1cnn(C)c(=O)c1Nc1ccc(C(=O)NCc2ccc(F)cc2)cc1`, the IC50 is > 50 µM (inactive).

Take `CC(=O)Nc1ccc(-c2csc(NC(=O)c3ccc([N+](=O)[O-])s3)n2)cc1`: the IC50 was 6.3 µM.

In the case of `CCN(Cc1ccncc1)Cc1ccc(NC(=O)c2cc(-c3ccc(F)cc3)n[nH]2)cc1`, the IC50 was 10 µM.

For the compound `CC1CN(S(=O)(=O)c2ccc(NC(=O)c3cc(C4CC4)nc4c3cnn4C(C)C)cc2)CC(C)O1` (configuration not stated), the IC50 was > 50 µM (inactive).

For `Cc1c(CNC(=O)c2ccc(Cn3cc(Cl)c([N+](=O)[O-])n3)cc2)cnn1C`, the IC50 is > 50 µM (inactive).

Turning to `O=C(NCCc1nc(-c2ccc(F)c(F)c2)n[nH]1)C1CCCCC1`, the IC50 was > 50 µM (inactive).

On to `CNc1cc(Cn2c(C(=O)c3cc(C)cc(Cl)c3)c(C(C)C)c(=O)[nH]c2=O)ccn1`, for which the IC50 is 10 µM.

Regarding `Cc1c(C(=O)NCCCCn2ccnc2)oc2c(C)cccc12`, the IC50 is 32 µM.

Take `Cc1cc(C)nc(N2CCC(N(Cc3cccnc3)C(=O)c3cccc(C#N)c3)CC2)n1`: the IC50 was 7.9 µM.

As to `CN(C)CCN(C)Cc1ccc(F)cc1NS(=O)(=O)c1ccc(Cl)c(Cl)c1`, the IC50 was 16 µM.

With `O=C(COc1ncnc2cc([N+](=O)[O-])ccc12)NC(=O)NC1CCCCC1`, the IC50 is > 50 µM (inactive).

Turning to `N#Cc1c(Oc2cccc(Cl)c2)cccc1[N+](=O)[O-]`, the IC50 is 20 µM.

Turning to `Cc1nn(C)c(Cl)c1CN(Cc1cccnc1)Cc1ccsc1`, the IC50 is 20 µM.

For the compound `COc1ccc([N+](=O)[O-])cc1NC(=O)Nc1cccc(Cl)c1`, the IC50 was > 50 µM (inactive).

In the case of `COc1cc(C(C)C)c(S(C)(=O)=O)cc1C(=O)N1CCN(c2ccccc2Cl)CC1`, the IC50 is > 50 µM (inactive).

Turning to `c1cc(-c2ncc(-c3ccn[nH]3)s2)ccn1`, the IC50 is > 50 µM (inactive).

Consider `Cc1ccc(NC(=O)c2ccc(Cl)c(NC(=O)c3ccc([N+](=O)[O-])cc3)c2)cc1`, for which the IC50 is 20 µM.

As to `CNc1cncc(C2CCCN2C(=O)Cc2coc3cc(C)ccc23)n1` (configuration not stated), the IC50 was > 50 µM (inactive).

As for `N#Cc1cc([N+](=O)[O-])ccc1NC1CCCCCC1`, the IC50 is > 50 µM (inactive).

On to `O=c1cc(NCCCNC2CCOc3c(I)cc(Cl)cc32)[nH]c2ccccc12` (configuration not stated), for which the IC50 is 25 µM.

For the compound `O=C(NC1C(=O)N(c2ccccc2)C1c1cccnc1)c1ccc(Cl)s1` (configuration not stated), the IC50 is > 50 µM (inactive).

Regarding `CCN(C)Cc1ccc(N2CCC(NS(=O)(=O)c3ccc4c(c3)CCO4)CC2)nc1`, the concentration for half-maximal inhibition (IC50) was 13 µM.

As to `O=c1ccn(-c2ccc([N+](=O)[O-])cc2Cl)c2ccc(F)cc12`, the IC50 is > 50 µM (inactive).

Take `COc1ccc(CN(C)Cc2ccncc2)cc1-c1ccc(S(=O)(=O)NC2CCC2)s1`: the IC50 is 25 µM.

Take `CC(C)Oc1ccc(C(=O)Nc2ccc(N3CCOCC3)c(Cl)c2)cc1`: the IC50 was 10 µM.

For `Cc1cccnc1CN1CCN(CCCOc2ccc(-c3ccc(C(N)=O)cc3)cc2)CC1`, the IC50 was 6.3 µM.

As for `c1ccc2c(CCOc3nccnc3-c3ccncc3)c[nH]c2c1`, the IC50 is 20 µM.

Consider `O=S(=O)(c1ccccc1C(F)(F)F)N1CCN(Cc2ccc(-n3ccnc3)cc2)CC1`, for which the IC50 is > 50 µM (inactive).

Turning to `C=CCOCC1Cn2nc([N+](=O)[O-])nc2O1` (configuration not stated), the IC50 is > 50 µM (inactive).

As for `CCN(CC)S(=O)(=O)c1ccc(C(=O)Nc2cc(C)nn2-c2nc(C)c(C)c(=O)[nH]2)cc1`, the IC50 was > 50 µM (inactive).

Turning to `COc1cccc(-c2cc(C(F)(F)F)nc(-n3ccc([N+](=O)[O-])n3)n2)c1`, the IC50 is > 50 µM (inactive).

With `Fc1ccc(OC2CC(NCc3cccc4cn[nH]c34)C2)cc1C(F)(F)F` (configuration not stated), the IC50 is 13 µM.

`O=C(Nc1nc(-c2ccc(S(=O)(=O)N3CCOCC3)cc2)cs1)c1ccc([N+](=O)[O-])cc1`: the IC50 was 25 µM.

Consider `Cc1ccc(C)c(-n2nnnc2Sc2nc([N+](=O)[O-])nn2C)c1`, for which the IC50 was > 50 µM (inactive).

As for `c1ccc(CCNCc2cncc3nc(-c4cnccn4)n(C4CCCCC4)c23)cc1`, the IC50 is 6.3 µM.

Turning to `Cc1[nH]c2ccccc2c(=O)c1Cc1c(C)[nH]c2ccccc2c1=O`, the IC50 is > 50 µM (inactive).

Turning to `Cc1c(C(C)NC(=O)Nc2cccc(Cl)c2)sc2ncnn12` (configuration not stated), the IC50 was > 50 µM (inactive).

For `CC(=O)Nc1nc(-c2cc(C)ccc2C)c(C)s1`, the IC50 is 25 µM.

As to `O=C(c1ccc(OCCCc2cnc[nH]2)cc1)C1CC1`, the IC50 is 13 µM.

In the case of `O=C(NCc1ccc(-n2cccc2)cc1)c1nc(Cn2ccc([N+](=O)[O-])n2)no1`, the IC50 was 50 µM.

As for `Clc1ccc(CN2CCN(C3=NCCN3)CC2)cc1Cl`, the IC50 was 40 µM.

As for `Clc1ccc(Sc2cnccc2N2CCOCC2)cc1`, the IC50 is > 50 µM (inactive).
